Results published in US9540338B2, “Substituted cinnamic acid amides for treating pain” (NIPPON ZOKI PHARMACEUTICAL CO., LTD., priority 2012, dated 2017).
Marks after values point to notes of the source that are not given here.

Assays:
ddY-type mice = assay: Analgesic efficacy test (1): acetic acid writhing test; assay type: in vivo; settings: Mus musculus, writhing number, mean ± standard error, 8 mice per group, read-out: Suppressive Rate; for inhibition in vivo at 10 mg/kg: oral single dose 10 mg/kg; for inhibition in vivo at 100 mg/kg: oral single dose 100 mg/kg
Excerpt: A compound of the present invention was orally administered to mice, to carry out an analgesic efficacy test according to acetic acid writhing test. As an experimental animal, 4-week old male ddY-type mice were previously bred, and thereafter 8 mice per one group were used in the experiment. A solution or suspension prepared by dissolving or suspending a compound of the present invention in a 0.5% (w/v) aqueous CMC-Na solution was orally administered as a test substance in a single dose. While, to a control group, a 0.5% (w/v) aqueous CMC-Na solution was administered in the same manner After 25 minutes from administration, the mice were intraperitoneally administered with a 0.7% (v/v) acetic acid/physiological saline at the dose of 10 mL/kg. From 5 minutes thereafter, writhing number in a 10-minute period was counted, and a suppressive rate for each individual (mean±standard error) was calculated by the following formula: […]
In the test for significance difference, Bartlett's test was carried out in the comparison between multiple groups of the group administered with test substance with the control group. In the case of homoscedasticity, Dunnett's multiple comparison test of parametrics, and in the case of heteroscedasticity, Dunnett's multiple comparison test of non-parametrics were used. In addition, in the test of dose dependency, Jonckheere-Terpstra's test was used. In all cases, significance difference was considered to be found at P<0.05 (indicated as “*” in the table).

Chung model rat = assay: Analgesic efficacy test (2): Chung model rat, neuropathic pain model (allodynia, von Frey filament); assay type: in vivo, rats; settings: mean ± standard error
Protocol: An analgesic efficacy test was conducted using a Chung model rat, a neuropathic pain model. Nine-week old Wistar male rats were previously bred as an experimental animal, and a model rat was then prepared in accordance with the method of Kim and Chung (Pain, 50, 355-363, 1992). Specifically, left L5 spinal nerves of rats were exposed under anesthetization with pentobarbital (40 mg/kg, intraperitoneal administration), and firmly ligated with 5-0 silk yarn at L5 dorsal root ganglion peripheral side. The animals were placed in a transparent acrylic cage of which bottom was wire netted The measurement of allodynia was carried out using von Frey filament (manufactured by North Coast Medical Inc.) and a 50% reaction threshold was calculated according to an up-down method, in accordance with a method of Chaplan et al. (J. Neurosci. Method, 53, 55-63, 1994). The 50% reaction thresholds were measured twice before injury of the spinal nerve, and those animals of which thresholds were outside the standard were removed from the operation of spinal nerve injury. On or after 14 days from the spinal nerve injury, a 50% reaction threshold was measured, and those showing thresholds of 1 g or more and less than 4 g were used as experimental animal. The group was constituted by 7 or 8 rats per group so that an average of a 50% reaction threshold for each group would be nearly even.
A solution or suspension prepared by dissolving or suspending a compound of the present invention in a 0.5% (w/v) aqueous CMC-Na solution was orally administered as a test substance in a single dose. Also, a 0.5% (w/v) aqueous CMC-Na solution was administered in the same manner to the control group for nerve injury. The measurements of allodynia were carried out with the passage of time after administration, and a 50% reaction threshold (mean±standard error) of each group at action peak was calculated. In the test for significance difference, Bartlett's test was carried out in the comparison between multiple groups of the group administered with test substance with the control group for nerve injury. In the case of homoscedasticity, Dunnett's multiple comparison test of parametrics, and in the case of heteroscedasticity, Dunnett's multiple comparison test of non-parametrics were used. In all cases, significance difference was considered to be found at P<0.05 (indicated as “*” in the tables).

[1] = oral 1 mg/kg, measurement point 30 minute (action peak)
[2] = oral 10 mg/kg, measurement point 30 minute (action peak)
[3] = oral 1 mg/kg, measurement point 90 minute (action peak)
[4] = oral 10 mg/kg, measurement point 90 minute (action peak)
[5] = oral 1 mg/kg, measurement point 60 minute (action peak)
[6] = oral 10 mg/kg, measurement point 60 minute (action peak)

SMILES | inhibition in vivo at 10 mg/kg (ddY-type mice) [%] | inhibition in vivo at 100 mg/kg (ddY-type mice) [%] | 50% Reaction Threshold, Group Administered with Test Substance, After Administration (Chung model rat; [1]) [g] | 50% Reaction Threshold, Group Administered with Test Substance, After Administration (Chung model rat; [2]) | melting point [°C] | 50% Reaction Threshold, Group Administered with Test Substance, After Administration (Chung model rat; [3]) | 50% Reaction Threshold, Group Administered with Test Substance, After Administration (Chung model rat; [4]) | 50% Reaction Threshold, Group Administered with Test Substance, After Administration (Chung model rat; [5]) | 50% Reaction Threshold, Group Administered with Test Substance, After Administration (Chung model rat; [6])
O=C(/C=C/c1ccccc1F)NCc1cccnc1 [Compound 2, (E)-3-(2-Fluorophenyl)-N-(3-pyridylmethyl)-2-propenamide] | 39.9 ± 10.4 | 39.9 ± 10 | 4.85 ± 0.78 | 7.76 ± 1.30* g | 115 to 116 | – | – | – | –
O=C(/C=C/c1ccccc1F)NCCc1ccncc1 [Compound 3, (E)-3-(2-Fluorophenyl)-N-[2-(4-pyridyl)ethyl]-2-propenamide] | 44.4 ± 11.1 | 59 ± 8.1 | – | – | 95 to 96 | 6.74 ± 1.04* g | 10.06 ± 1.60* g | – | –
O=C(/C=C/c1ccccc1F)NCCN1CCCCC1 [Compound 4, (E)-3-(2-Fluorophenyl)-N-[2-(1-piperidyl)ethyl]-2-propenamide] | 47 ± 7.8 | 49 ± 9.2 | 3.98 ± 0.21 | 7.35 ± 0.95* g | 84 to 85 | – | – | – | –
O=C(/C=C/c1ccccc1F)NCCN1CCOCC1 [Compound 5, (E)-3-(2-Fluorophenyl)-N-(2-morpholinoethyl)-2-propenamide] | 34.8 ± 10.3 | 95.7 ± 3.1 | – | – | 112 to 113 | 4.91 ± 0.73 g | 8.68 ± 1.91* g | – | –
O=C(/C=C/c1ccccc1F)NCCN1CCN(C2CCCCC2)CC1 [Compound 6, (E)-N-[2-(4-Cyclohexylpiperazin-1-yl)ethyl]-3-(2-fluorophenyl)-2-propenamide] | 29.6 ± 12.8 | 70.4 ± 6.1 | – | – | 113 to 114 | 10.87 ± 1.24* g | 14.06 ± 0.61* g | – | –
O=C(/C=C/c1ccccc1F)NCCCN1CCN(C2CCCCC2)CC1 [Compound 7, (E)-N-[3-(4-Cyclohexylpiperazin-1-yl)propyl]-3-(2-fluorophenyl)-2-propenamide] | 41.5 ± 17.2 | 68.4 ± 8 | – | – | 84 to 85 | 9.05 ± 1.80 g | 12.70 ± 1.16* g | – | –
Cn1cccc1CCNC(=O)/C=C/c1ccccc1F [Compound 8, (E)-3-(2-Fluorophenyl)-N-[2-(1-methyl-1H-pyrrol-2-yl)ethyl]-2-propenamide] | 8.5 ± 13.9 | 28.1 ± 8.3 | – | – | 93 to 94 | 4.37 ± 0.53 g | 5.57 ± 1.18* g | – | –
Cl.O=C(/C=C/c1ccccc1F)NCCCN1CCOCC1 [Compound 11, (E)-3-(2-Fluorophenyl)-N-(3-morpholinopropyl)-2-propenamide hydrochloride] | 23.2 ± 12.8 | 68.9 ± 4.5 | – | – | 153 to 154 | – | – | 11.69 ± 1.80* g | 14.27 ± 0.73* g
CN(C)CCCNC(=O)/C=C/c1ccccc1F.Cl [Compound 12, (E)-N-(3-Dimethylaminopropyl)-3-(2-fluorophenyl)-2-propenamide hydrochloride] | -4.3 ± 12 | 49.4 ± 14.5 | – | – | 99 to 100 | – | – | 4.64 ± 0.70 g | 5.00 ± 1.17 g
Cl.NCCCCNC(=O)/C=C/c1ccccc1F [Compound 14, (E)-N-(4-Aminobutyl)-3-(2-fluorophenyl)-2-propenamide hydrochloride] | 46.3 ± 11.1 | 76.8 ± 4.1 | – | – | 177 to 178 | – | – | 12.38 ± 1.15* g | 13.61 ± 0.96* g
O=C(/C=C/c1ccccc1F)NCCc1c[nH]cn1 [Compound 18, (E)-3-(2-Fluorophenyl)-N-[2-(1H-imidazol-4-yl)ethyl]-2-propenamide] | 54.3 ± 13.2 | 62.3 ± 14.6 | – | – | 152 to 153 | 10.92 ± 1.33* g | 11.44 ± 1.95* g | – | –
